Experimental findings from US20230212549A1, “COMPOUNDS COMPRISING A […] LIGAND AND USE THEREOF” (priority 2021, published 2023) are described below.

Numbered stars: 1 amine (or outer) side, 2 acyl side, 3 side chain; on linkers, the order of the positions; unused ones are H or OH. Bridge positions count the residues as written; N and C are the ends. Square brackets hold non-standard residues; d marks the D form. Peptide text beside a SMILES is read from it. mXylylene = c1cc(C[*:1])cc(C[*:2])c1; NMeF = CN[C@@H](Cc1ccccc1)C(=O)O; Tic = O=C(O)[C@@H]1Cc2ccccc2CN1

Data set [1] is described as follows: Plasma stability assay, mouse plasma. It counts as in vitro ADME. Particulars: mouse, plasma, 37° C., read-out: % intact compound remaining after incubation, Mouse plasma; for remaining at 4 h, 9.8 µM: 4 h incubation.
Data set [2] has as its target T1, Human recombinant FAP (Homo sapiens, UniProt Q12884). Put plainly: FRET-based FAP protease activity assay. It counts as biochemical. Further details: purchased R&D systems 3715-SE.
The target in data set [3] is T2, FAP-expressing human WI-38 fibroblasts (Homo sapiens, UniProt Q12884).
T2 construct: FAP-expressing human WI-38 fibroblasts (ECACC) were cultured in EMEM; host or cells: WI-38 human fibroblasts
T2 sequence (Q12884 whole entry): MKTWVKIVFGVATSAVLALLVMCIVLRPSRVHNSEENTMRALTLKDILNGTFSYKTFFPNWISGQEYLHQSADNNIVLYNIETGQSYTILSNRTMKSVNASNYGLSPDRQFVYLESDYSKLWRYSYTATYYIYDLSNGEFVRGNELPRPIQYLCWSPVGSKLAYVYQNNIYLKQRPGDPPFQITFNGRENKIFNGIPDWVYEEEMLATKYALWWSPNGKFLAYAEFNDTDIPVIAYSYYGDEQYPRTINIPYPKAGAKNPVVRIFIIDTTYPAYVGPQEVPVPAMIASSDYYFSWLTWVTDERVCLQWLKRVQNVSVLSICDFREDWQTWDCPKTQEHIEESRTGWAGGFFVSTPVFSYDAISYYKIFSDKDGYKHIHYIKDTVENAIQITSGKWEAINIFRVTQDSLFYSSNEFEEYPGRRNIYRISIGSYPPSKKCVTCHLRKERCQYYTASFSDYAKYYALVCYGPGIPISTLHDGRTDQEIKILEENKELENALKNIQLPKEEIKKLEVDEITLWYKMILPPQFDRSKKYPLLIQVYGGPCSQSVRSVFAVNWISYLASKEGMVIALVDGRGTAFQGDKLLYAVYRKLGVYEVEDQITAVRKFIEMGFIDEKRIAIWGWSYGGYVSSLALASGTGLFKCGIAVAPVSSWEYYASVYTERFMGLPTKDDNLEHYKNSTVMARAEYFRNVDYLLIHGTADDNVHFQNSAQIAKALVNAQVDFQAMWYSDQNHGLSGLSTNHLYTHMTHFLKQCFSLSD
In words: Competitive FACS binding assay. As to the method:
Cells were analyzed in an Attune NxT flow cytometer. […] […].
Cells were analyzed in an Attune NxT flow cytometer. […]

The conditions of data set [4]: 24 h incubation, 37° C.
Data set [5] deals with T1, Human recombinant FAP. Put plainly: Surface plasmon resonance (Biacore) assay. It counts as binding. On the technique in general: In SPR one partner is held on a chip, and binding of the other changes the refractive index at the surface.
The conditions of data set [6]: 24 h incubation, 37° C. This is another data set of the same source.
Data set [7] can be described thus: in vivo. Particulars: swiss nude, mouse, iv.
Data set [8] deals with HEK-FAP tumor. The settings on record: ^99mTc-labelled, 1-6 h post injection; compared to 3BP-4219 and 3BP-4221.
The nature of data set [9]: Radiochemical purity by HPLC of ^99mTc-labeled compounds. It counts as physicochemical. The settings on record: 99Tc-labeled compounds. As to the method:
100-500 MBq of ^99mTcO4 (in saline) were mixed with 11 μl of 0.5 M phosphate buffer pH 11.5-12.0 and 1.1 μl of 0.1 M trisodium citrate per 100 μl radionuclide solution. […] The mixture was incubated for 30 min at 25-50′° C. At the end of the incubation time, the mixture was neutralized with 3.0 μl 1 M HCl per 10 μl phosphate buffer and TWEEN-20 was added at a final concentration of 0.100.

The subject of data set [10] is HEK-FAP tumor. The settings on record: ^68Ga-labeled, PET/CT.
Where [11] appears, read: pIC50 Category (Activity), FRET-based FAP protease activity assay, recombinant human FAP, 37° C.
Where [12] appears, read: pIC50 Category (activity), Recombinant human FAP.

T1 sequence (Q12884 whole entry): as above

What is called amount remaining is the share of the starting amount still present when the sample was taken. Take `CSCC[C@@H](NC(C)=O)C(=O)N[C@H]1CSCc2cccc(c2)CSC[C@@H](C(=O)N[C@@H](CC(=O)O)C(=O)N[C@@H](Cc2c[nH]cn2)C(=O)N[C@@H](Cc2ccccc2)C(=O)N[C@@H](CCCNC(=N)N)C(=O)N[C@@H](CC(=O)O)C(N)=O)NC(=O)[C@H](Cc2ccccc2)NC(=O)[C@H](CCC(=O)O)NC(=O)[C@H]([C@@H](C)O)NC(=O)[C@@H]2CCCN2C(=O)[C@@H]2CCCN2C1=O` [3BP-3187, Ac-met-[Cys(3MeBn)-Pro-Pro-Thr-Glu-Phe-Cys]-Asp-His-Phe-Arg-Asp-NH2] (Ac-[dM]CPPTEFCDHFRD-NH2; linker 2-8 via mXylylene): the share remaining at 4 h, 9.8 µM in data set [1] stood at 100%.
In general, IC50 refers to the concentration that gives 50% inhibition. As for `CSCC[C@H](NC(C)=O)C(=O)N[C@H]1CSCc2cccc(c2)CSC[C@@H](C(=O)N[C@@H](CC(=O)O)C(=O)N[C@@H](Cc2c[nH]cn2)C(=O)N(C)[C@@H](Cc2ccccc2)C(=O)N[C@@H](CCCNC(=N)N)C(=O)N[C@@H](CC(=O)O)C(N)=O)NC(=O)[C@H](Cc2ccccc2)NC(=O)[C@H](CCC(=O)O)NC(=O)[C@H]([C@@H](C)O)NC(=O)[C@@H]2CCCN2C(=O)[C@@H]2CCCN2C1=O` [3BP-3188, Ac-Met-[Cys(3MeBn)-Pro-Pro-Thr-Glu-Phe-Cys]-Asp-His-Nmf-Arg-Asp-NH2] (Ac-MCPPTEFCDH[NMeF]RD-NH2; linker 2-8 via mXylylene), the IC50 in [2] (setting [11]) and in [3] was less than 10 nM throughout. Moreover, in [1], the amount remaining at 4 h, 9.8 µM came to 97%.
With `CSCC[C@H](NC(C)=O)C(=O)N[C@H]1CSCc2cccc(c2)CSC[C@@H](C(=O)N[C@@H](CC(=O)O)C(=O)N[C@@H](Cc2c[nH]cn2)C(=O)N2Cc3ccccc3C[C@H]2C(=O)N[C@@H](CCCNC(=N)N)C(=O)N[C@@H](CC(=O)O)C(N)=O)NC(=O)[C@H](Cc2ccccc2)NC(=O)[C@H](CCC(=O)O)NC(=O)[C@H]([C@@H](C)O)NC(=O)[C@@H]2CCCN2C(=O)[C@@H]2CCCN2C1=O` [3BP-3189, Ac-Met-[Cys(3MeBn)-Pro-Pro-Thr-Glu-Phe-Cys]-Asp-His-Tic-Arg-Asp-NH2] (Ac-MCPPTEFCDH[Tic]RD-NH2; linker 2-8 via mXylylene), the share remaining at 4 h, 9.8 µM in data set [1] turned out to be 100%.
In the case of `CCCCCC(=O)N[C@H]1CSCc2cccc(c2)CSC[C@@H](C(=O)N[C@@H](CCCCNC(=O)CN2CCN(CC(=O)O)CCN(CC(=O)O)CCN(CC(=O)O)CC2)CC(=O)O)NC(=O)[C@H](Cc2ccccc2)NC(=O)[C@H](CCC(N)=O)NC(=O)[C@H]([C@@H](C)O)NC(=O)[C@@H]2CCCN2C(=O)[C@@H]2CCCN2C1=O` [3BP-3397, Hex-[Cys(3MeBn)-Pro-Pro-Thr-Gln-Phe-Cys]-Bhk(DOTA)-OH], the “% intact compound remaining after incubation, Human plasma” value in data set [4] is 100% (24 h).
Same read-out and setting: with `CCCC[C@H](NC(=O)CCC(=O)NCCCOCCOCCOCCCNC(=O)CN1CCN(CC(=O)O)CCN(CC(=O)O)CCN(CC(=O)O)CC1)C(=O)N[C@H]1CSCc2cccc(c2)CSC[C@@H](C(=O)NCCC(=O)O)NC(=O)[C@H](Cc2ccccc2)NC(=O)[C@H](CCC(N)=O)NC(=O)[C@H]([C@@H](C)O)NC(=O)[C@@H]2CCCN2C(=O)[C@@H]2CCCN2C1=O` [3BP-3398, DOTA-Ttds-Nle-[Cys(3MeBn)-Pro-Pro-Thr-Gln-Phe-Cys]-Bal-OH] the figure was 99% (24 h).
Broadly, the Kd is the equilibrium constant for the complex coming apart. Consider `CCCCCC(=O)N[C@H]1CSCc2cc(cc(CN3CCN(C(=O)CN4CCN(CC(=O)O)CCN(CC(=O)O)CCN(CC(=O)O)CC4)CC3)c2)CSC[C@@H](C(=O)O)NC(=O)[C@H](Cc2ccccc2)NC(=O)[C@H](CCC(N)=O)NC(=O)[C@H]([C@@H](C)O)NC(=O)[C@@H]2CCCN2C(=O)[C@@H]2CCCN2C1=O` [3BP-3555, Hex-[Cys(tMeBn(DOTA-PP))-Pro-Pro-Thr-Gln-Phe-Cys]-OH], for which the IC50 in data set [2] (setting [11]) is less than 10 nM; in [3], 10 to 79.4 nM. In addition, in data set [1] (24 h incubation), the share remaining at 24 h, 9.8 µM amounted to 88%. Also, the Kd in data set [5] was less than 10 nM.
In the case of `CCCCCC(=O)N[C@H]1CSCc2cc(CSCCNC(=O)CN3CCN(CC(=O)O)CCN(CC(=O)O)CCN(CC(=O)O)CC3)cc(c2)CSC[C@@H](C(=O)O)NC(=O)[C@H](Cc2ccccc2)NC(=O)[C@H](CCC(N)=O)NC(=O)[C@H]([C@@H](C)O)NC(=O)[C@@H]2CCCN2C(=O)[C@@H]2CCCN2C1=O` [3BP-3624, Hex-[Cys(tMeBn(LuDOTA-AET))-Pro-Pro-Thr-Gln-Phe-Cys]-OH], in [4], the “% intact compound remaining after incubation, Human plasma” value is 100% (24 h). Moreover, the “% intact compound remaining after incubation, Rat plasma” value in data set [6] was 100% (24 h).
What is called tissue uptake is the share of the injected amount in each gram of the tissue. A high value points to strong accumulation. In the case of `CCCC[C@H](NC(=O)CCC(=O)NCCCOCCOCCOCCCNC(=O)CN1CCN(C(=O)C(CNCCN)CNCCN)CC1)C(=O)N[C@H]1CSCc2cccc(c2)CSCC(C(=O)O)NC(=O)[C@H](Cc2ccccc2)NC(=O)[C@H](CCC(N)=O)NC(=O)[C@H]([C@@H](C)O)NC(=O)[C@@H]2CCCN2C(=O)[C@@H]2CCCN2C1=O` (stereo partly drawn) [3BP-4541, N4Ac-PPAc-Ttds-Nle-[Cys(3MeBn)-Pro-Pro-Thr-Gln-Phe-Cys]-OH], the tissue uptake at 1 h in data set [7] (blood pool surrogate (BPS)) came to 0.48 %ID/g; in data set [7] (kidneys), 4.02 %ID/g; in data set [7] (tumor), 8.81 %ID/g. The tissue uptake at 3 h in [7] (blood pool surrogate (BPS)) stood at 0.2 %ID/g; in data set [7] (kidneys), 2.41 %ID/g; in data set [7] (tumor) it was 9.76 %ID/g. For the same molecule, the tissue uptake at 6 h was determined as 0.06 %ID/g in data set [7] (blood pool surrogate (BPS)), 1.01 %ID/g in data set [7] (kidneys) and 7.48 %ID/g in data set [7] (tumor). Further, the “uptake in healthy tissues (biodistribution)” value in data set [8] was “decreased uptake in healthy tissues over time”. Further, the “HPLC Area % appr. 4 h post end of synthesis” value in [9] turned out to be 89.7%. For the same molecule, the “HPLC Area % at end of synthesis” value in [9] is 95.8%. In addition, the IC50 in data set [2] (setting [12]) and in data set [3] was 10 to 79.4 nM each time. The Kd in data set [5] was 10 to 79.4 nM.
Regarding `CCCC[C@H](NC(=O)CCC(=O)NCCCOCCOCCOCCCNC(=O)CCC(C(=O)O)N1CCN(CC(=O)O)CCN(CC(=O)O)CC1)C(=O)N[C@H]1CSCc2cccc(c2)CSCC(C(=O)O)NC(=O)[C@H](Cc2ccccc2)NC(=O)[C@H](CCC(N)=O)NC(=O)[C@H]([C@@H](C)O)NC(=O)[C@@H]2CCCN2C(=O)[C@@H]2CCCN2C1=O` (stereo partly drawn) [3BP-4713, NODAGA-Ttds-Nle-[Cys(3MeBn)-Pro-Pro-Thr-Gln-Phe-Cys]-OH], the “uptake BPS 0.25 h” value in data set [10] (BPS (blood pool surrogate), 0.25 h post tracer injection) was found to be 2.27 % ID/g. Further, in data set [10] (BPS (blood pool surrogate), 1 h post tracer injection), the “uptake BPS 1 h” value is recorded as 0.77 % ID/g. Also, in data set [10] (BPS (blood pool surrogate), 3 h post tracer injection), the “uptake BPS 3 h” value turned out to be 0.19 % ID/g. Further, the “uptake Tumor 0.25 h” value in data set [10] (HEK-FAP tumor, 0.25 h post tracer injection) amounted to 3.46 % ID/g. In addition, the “uptake Tumor 1 h” value in data set [10] (HEK-FAP tumor, 1 h post tracer injection) came out at 3.90 % ID/g. For the same molecule, the “uptake Tumor 3 h” value in data set [10] (HEK-FAP tumor, 3 h post tracer injection) was determined as 3.21 % ID/g. In data set [10] (kidneys, 0.25 h post tracer injection), the “uptake Kidneys 0.25 h” value came out at 9.05 % ID/g. Also, the “uptake Kidneys 1 h” value in [10] (kidneys, 1 h post tracer injection) is given as 2.50 % ID/g. Also, the “uptake Kidneys 3 h” value in data set [10] (kidneys, 3 h post tracer injection) is on record as 0.82 % ID/g. Besides, the IC50 in data set [2] (setting [12]) and in data set [3] was 10 to 79.4 nM in each case.
For `CCCC[C@H](NC(=O)CCC(=O)NCCCOCCOCCOCCCNC(=O)CN1CCN(C(=O)C(CNCCN)CNCCN)CC1)C(=O)N[C@H]1CSCc2cncc(c2)CSC[C@@H](C(=O)NCCC(=O)O)NC(=O)[C@H](Cc2ccccc2)NC(=O)[C@H](CCC(N)=O)NC(=O)[C@H]([C@@H](C)O)NC(=O)[C@@H]2CCCN2C(=O)[C@@H]2CCCN2C1=O` [3BP-4961, N4Ac-PPAc-Ttds-Nle-[Cys(3Lut)-Pro-Pro-Thr-Gln-Phe-Cys]-Bal-OH], the tissue uptake at 1 h in data set [7] (blood pool surrogate (BPS)) was 0.47 %ID/g; in data set [7] (kidneys) it was 2.36 %ID/g; in [7] (tumor), 10.5 %ID/g. The tissue uptake at 3 h in data set [7] (blood pool surrogate (BPS)) is 0.31 %ID/g; in data set [7] (kidneys), 1.12 %ID/g; in [7] (tumor), 11.4 %ID/g. Also, the tissue uptake at 6 h turned out to be 0.11 %ID/g in data set [7] (blood pool surrogate (BPS)), 0.77 %ID/g in data set [7] (kidneys) and 12.3 %ID/g in data set [7] (tumor). The “uptake in healthy tissues (biodistribution)” value in [8] was “decreased uptake in healthy tissues over time”. For the same molecule, in data set [9], the “HPLC Area % at end of synthesis” value came out at 98.0%. Besides, the IC50 in [2] (setting [12]) and in data set [3] was less than 10 nM in each case. Also, in data set [5], the Kd was less than 10 nM.
